Tests used:
[1] = target: PDHK1 (Homo sapiens, UniProt Q15118); test: HotSpot […]-ATP radiometric filter-binding kinase assay; type: biochemical
[2] = target: Hsp90α (Homo sapiens, UniProt P07900); test: fluorescence polarization competition with FITC-geldanamycin; type: binding

Sequence of PDHK1 (Q15118 29-436): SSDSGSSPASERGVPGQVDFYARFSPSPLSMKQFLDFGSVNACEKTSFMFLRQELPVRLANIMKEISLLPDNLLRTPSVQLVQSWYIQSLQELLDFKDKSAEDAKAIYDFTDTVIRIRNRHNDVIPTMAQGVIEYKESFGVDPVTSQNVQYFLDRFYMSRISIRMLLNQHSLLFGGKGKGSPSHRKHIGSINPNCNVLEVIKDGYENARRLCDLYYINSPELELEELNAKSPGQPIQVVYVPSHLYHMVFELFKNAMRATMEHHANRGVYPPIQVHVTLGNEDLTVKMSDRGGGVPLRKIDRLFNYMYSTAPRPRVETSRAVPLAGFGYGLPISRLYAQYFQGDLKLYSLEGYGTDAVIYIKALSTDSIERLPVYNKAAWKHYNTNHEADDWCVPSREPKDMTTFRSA

IC50 [1] | IC50 [2] | Compound
28700 nM | 7 nM | CC(C)c1cc(-n2nnc(C(=O)Nc3cccc(NS(C)(=O)=O)c3)c2-c2ccncc2)c(O)cc1O [4a, 1‐(2,4‐dihydroxy‐5‐isopropylphenyl)‐N‐[3‐(methylsulfonamido)phenyl]‐5‐(pyridin‐4‐yl)‐1H‐1,2,3‐triazole‐4‐carboxamide]
– | 1700 nM | CC(C)c1cc(-n2nnc(C(=O)Nc3c(F)ccc(NS(C)(=O)=O)c3F)c2-c2ccncc2)c(O)cc1O [4b, N‐[2,6‐difluoro‐3‐(methylsulfonamido)phenyl]‐1‐(2,4‐dihydroxy‐5‐isopropylphenyl)‐5‐(pyridin‐4‐yl)‐1H‐1,2,3‐triazole‐4‐carboxamide]
– | 1100 nM | CCS(=O)(=O)Nc1ccc(F)c(NC(=O)c2nnn(-c3cc(C(C)C)c(O)cc3O)c2-c2ccncc2)c1F [4c, 1‐(2,4‐dihydroxy‐5‐isopropylphenyl)‐N‐[3‐(ethylsulfonamido)‐2,6‐difluorophenyl]‐5‐(pyridin‐4‐yl)‐1H‐1,2,3‐triazole‐4‐carboxamide]
38300 nM | 30 nM | CCCS(=O)(=O)Nc1ccc(F)c(NC(=O)c2nnn(-c3cc(C(C)C)c(O)cc3O)c2-c2ccncc2)c1F [4d, N‐[2,6‐difluoro‐3‐(propylsulfonamido)phenyl]‐1‐(2,4‐dihydroxy‐5‐isopropylphenyl)‐5‐(pyridin‐4‐yl)‐1H‐1,2,3‐triazole‐4‐carboxamide]
7100 nM | – | O=C1Nc2ccc(I)cc2C1=Cc1cc(Br)c(O)c(Br)c1 [GW5074, reference compound]
